Data reported in ChEMBL document CHEMBL6103592, “Discovery of novel thiazole-pleuromutilin derivatives with potent antibacterial activity” (Eur J Med Chem, 2025).
Converted amounts (≈) assume the structure as drawn.

What was measured:
Assay type in all cases: functional
Mycoplasma = test: Antibacterial activity against Mycoplasma F3 assessed as inhibition of visible bacterial growth incubated for 24 hrs by CLSI based broth microdilution method
Staphylococcus aureus [1] = test: Antibacterial activity against methicillin-resistant Staphylococcus aureus ATCC 43300 assessed as inhibition of visible bacterial growth incubated for 24 hrs by CLSI based broth microdilution method
Enterococcus faecalis = test: Antibacterial activity against Enterococcus faecalis assessed as inhibition of visible bacterial growth incubated for 24 hrs by CLSI based broth microdilution method
Streptococcus agalactiae = test: Antibacterial activity against Streptococcus agalactiae assessed as inhibition of visible bacterial growth incubated for 24 hrs by CLSI based broth microdilution method
Staphylococcus aureus [2] = test: Antibacterial activity against Staphylococcus aureus ATCC 25923 assessed as inhibition of visible bacterial growth incubated for 24 hrs by CLSI based broth microdilution method
Escherichia coli = test: Antibacterial activity against Escherichia coli ATCC 25922 assessed as inhibition of visible bacterial growth incubated for 24 hrs by CLSI based broth microdilution method

Structure (SMILES)	MIC (Mycoplasma)	MIC (Staphylococcus aureus [1])	MIC (Enterococcus faecalis)	MIC (Streptococcus agalactiae)	MIC (Staphylococcus aureus [2])	MIC (Escherichia coli)
C=C[C@]1(C)C[C@@H](OC(=O)CSc2nc(OC(=O)c3cccs3)cs2)[C@]2(C)[C@H](C)CC[C@]3(CCC(=O)[C@H]32)[C@@H](C)[C@@H]1O	0.25 µg/mL (≈ 0.414 µM)	1 µg/mL (≈ 1.66 µM)	> 32 µg/mL	0.25 µg/mL (≈ 0.414 µM)	0.5 µg/mL (≈ 0.828 µM)	> 32 µg/mL
C=C[C@]1(C)C[C@@H](OC(=O)CSC2=NC(=O)CS2)[C@]2(C)[C@H](C)CC[C@]3(CCC(=O)[C@H]32)[C@@H](C)[C@@H]1O	0.5 µg/mL (≈ 1.01 µM)	1 µg/mL (≈ 2.03 µM)	> 32 µg/mL	0.125 µg/mL (≈ 0.253 µM)	0.5 µg/mL (≈ 1.01 µM)	> 32 µg/mL
C=C[C@]1(C)C[C@@H](OC(=O)CSc2nc(OC(=O)CCC)cs2)[C@]2(C)[C@H](C)CC[C@]3(CCC(=O)[C@H]32)[C@@H](C)[C@@H]1O	0.25 µg/mL (≈ 0.443 µM)	1 µg/mL (≈ 1.77 µM)	> 32 µg/mL	0.125 µg/mL (≈ 0.222 µM)	1 µg/mL (≈ 1.77 µM)	> 32 µg/mL
C=C[C@]1(C)C[C@@H](OC(=O)CSc2nc(OC(=O)c3ccc(C)cc3)cs2)[C@]2(C)[C@H](C)CC[C@]3(CCC(=O)[C@H]32)[C@@H](C)[C@@H]1O	0.5 µg/mL (≈ 0.817 µM)	1 µg/mL (≈ 1.63 µM)	> 32 µg/mL	0.063 µg/mL (≈ 0.103 µM)	0.25 µg/mL (≈ 0.409 µM)	> 32 µg/mL
C=C[C@]1(C)C[C@@H](OC(=O)CSc2nc(OC(=O)c3ccc(F)cc3)cs2)[C@]2(C)[C@H](C)CC[C@]3(CCC(=O)[C@H]32)[C@@H](C)[C@@H]1O	0.25 µg/mL (≈ 0.406 µM)	0.5 µg/mL (≈ 0.812 µM)	> 32 µg/mL	0.125 µg/mL (≈ 0.203 µM)	0.5 µg/mL (≈ 0.812 µM)	> 32 µg/mL
C=C[C@]1(C)C[C@@H](OC(=O)CSc2nc(OC(=O)C(CC)CCCC)cs2)[C@]2(C)[C@H](C)CC[C@]3(CCC(=O)[C@H]32)[C@@H](C)[C@@H]1O (stereo partly drawn)	0.5 µg/mL (≈ 0.807 µM)	0.5 µg/mL (≈ 0.807 µM)	> 32 µg/mL	0.25 µg/mL (≈ 0.403 µM)	2 µg/mL (≈ 3.23 µM)	> 32 µg/mL
C=C[C@]1(C)C[C@@H](OC(=O)CSc2nc(OC(=O)C3CCCC3)cs2)[C@]2(C)[C@H](C)CC[C@]3(CCC(=O)[C@H]32)[C@@H](C)[C@@H]1O	0.25 µg/mL (≈ 0.424 µM)	1 µg/mL (≈ 1.7 µM)	> 32 µg/mL	0.25 µg/mL (≈ 0.424 µM)	2 µg/mL (≈ 3.39 µM)	> 32 µg/mL
C=C[C@]1(C)C[C@@H](OC(=O)CSc2nc(OC(=O)c3cccc(C)c3)cs2)[C@]2(C)[C@H](C)CC[C@]3(CCC(=O)[C@H]32)[C@@H](C)[C@@H]1O	0.5 µg/mL (≈ 0.817 µM)	0.5 µg/mL (≈ 0.817 µM)	> 32 µg/mL	0.063 µg/mL (≈ 0.103 µM)	0.5 µg/mL (≈ 0.817 µM)	> 32 µg/mL
C=C[C@]1(C)C[C@@H](OC(=O)CSc2nc(OC(=O)CC(C)C)cs2)[C@]2(C)[C@H](C)CC[C@]3(CCC(=O)[C@H]32)[C@@H](C)[C@@H]1O	0.125 µg/mL (≈ 0.216 µM)	0.5 µg/mL (≈ 0.865 µM)	> 32 µg/mL	0.125 µg/mL (≈ 0.216 µM)	1 µg/mL (≈ 1.73 µM)	> 32 µg/mL
C=C[C@]1(C)C[C@@H](OC(=O)CSc2nc(OC(=O)c3cccc(Cl)c3)cs2)[C@]2(C)[C@H](C)CC[C@]3(CCC(=O)[C@H]32)[C@@H](C)[C@@H]1O	0.25 µg/mL (≈ 0.395 µM)	1 µg/mL (≈ 1.58 µM)	> 32 µg/mL	0.063 µg/mL (≈ 0.0996 µM)	0.25 µg/mL (≈ 0.395 µM)	> 32 µg/mL
C=C[C@]1(C)C[C@@H](OC(=O)CSc2nc(OC(=O)C3CCCCC3)cs2)[C@]2(C)[C@H](C)CC[C@]3(CCC(=O)[C@H]32)[C@@H](C)[C@@H]1O	0.5 µg/mL (≈ 0.828 µM)	1 µg/mL (≈ 1.66 µM)	> 32 µg/mL	0.125 µg/mL (≈ 0.207 µM)	1 µg/mL (≈ 1.66 µM)	> 32 µg/mL
C=C[C@]1(C)C[C@@H](OC(=O)CSc2nc(OC(=O)c3c(Cl)cc(Cl)cc3Cl)cs2)[C@]2(C)[C@H](C)CC[C@]3(CCC(=O)[C@H]32)[C@@H](C)[C@@H]1O	1 µg/mL (≈ 1.43 µM)	16 µg/mL (≈ 22.8 µM)	> 32 µg/mL	0.5 µg/mL (≈ 0.713 µM)	16 µg/mL (≈ 22.8 µM)	> 32 µg/mL
C=C[C@]1(C)C[C@@H](OC(=O)CSc2nc(OC(=O)c3cccc(F)c3)cs2)[C@]2(C)[C@H](C)CC[C@]3(CCC(=O)[C@H]32)[C@@H](C)[C@@H]1O	0.5 µg/mL (≈ 0.812 µM)	0.5 µg/mL (≈ 0.812 µM)	> 32 µg/mL	0.125 µg/mL (≈ 0.203 µM)	2 µg/mL (≈ 3.25 µM)	> 32 µg/mL
C=C[C@]1(C)C[C@@H](OC(=O)CSc2nc(OC(=O)c3ccc(Cl)cc3Cl)cs2)[C@]2(C)[C@H](C)CC[C@]3(CCC(=O)[C@H]32)[C@@H](C)[C@@H]1O	0.5 µg/mL (≈ 0.75 µM)	0.5 µg/mL (≈ 0.75 µM)	> 32 µg/mL	0.063 µg/mL (≈ 0.0945 µM)	2 µg/mL (≈ 3 µM)	> 32 µg/mL
C=C[C@]1(C)C[C@@H](OC(=O)CSc2nc(OC(=O)C(C)(C)CC)cs2)[C@]2(C)[C@H](C)CC[C@]3(CCC(=O)[C@H]32)[C@@H](C)[C@@H]1O	0.125 µg/mL (≈ 0.211 µM)	0.5 µg/mL (≈ 0.845 µM)	> 32 µg/mL	0.063 µg/mL (≈ 0.106 µM)	0.25 µg/mL (≈ 0.422 µM)	> 32 µg/mL
C=C[C@]1(C)C[C@@H](OC(=O)CSc2nc(OC(=O)CCCCCCC)cs2)[C@]2(C)[C@H](C)CC[C@]3(CCC(=O)[C@H]32)[C@@H](C)[C@@H]1O	0.5 µg/mL (≈ 0.807 µM)	2 µg/mL (≈ 3.23 µM)	> 32 µg/mL	0.125 µg/mL (≈ 0.202 µM)	2 µg/mL (≈ 3.23 µM)	> 32 µg/mL
C=C[C@]1(C)C[C@@H](OC(=O)CSc2nc(OC(=O)c3ccccc3)cs2)[C@]2(C)[C@H](C)CC[C@]3(CCC(=O)[C@H]32)[C@@H](C)[C@@H]1O	0.25 µg/mL (≈ 0.418 µM)	1 µg/mL (≈ 1.67 µM)	> 32 µg/mL	0.063 µg/mL (≈ 0.105 µM)	0.5 µg/mL (≈ 0.836 µM)	> 32 µg/mL
C=C[C@]1(C)C[C@@H](OC(=O)CSc2nc(OC(=O)C3CCC3)cs2)[C@]2(C)[C@H](C)CC[C@]3(CCC(=O)[C@H]32)[C@@H](C)[C@@H]1O	0.5 µg/mL (≈ 0.868 µM)	0.5 µg/mL (≈ 0.868 µM)	> 32 µg/mL	0.063 µg/mL (≈ 0.109 µM)	1 µg/mL (≈ 1.74 µM)	> 32 µg/mL
C=C[C@]1(C)C[C@@H](OC(=O)CSc2nc(OC(=O)c3ccccc3C)cs2)[C@]2(C)[C@H](C)CC[C@]3(CCC(=O)[C@H]32)[C@@H](C)[C@@H]1O	1 µg/mL (≈ 1.63 µM)	1 µg/mL (≈ 1.63 µM)	> 32 µg/mL	0.063 µg/mL (≈ 0.103 µM)	2 µg/mL (≈ 3.27 µM)	> 32 µg/mL
C=C[C@]1(C)C[C@@H](OC(=O)CSc2nc(OC(=O)c3ccc(Cl)cc3)cs2)[C@]2(C)[C@H](C)CC[C@]3(CCC(=O)[C@H]32)[C@@H](C)[C@@H]1O	0.25 µg/mL (≈ 0.395 µM)	0.5 µg/mL (≈ 0.791 µM)	> 32 µg/mL	0.063 µg/mL (≈ 0.0996 µM)	0.5 µg/mL (≈ 0.791 µM)	> 32 µg/mL
C=C[C@]1(C)C[C@@H](OC(=O)CSc2nc(OC(=O)CCCCC)cs2)[C@]2(C)[C@H](C)CC[C@]3(CCC(=O)[C@H]32)[C@@H](C)[C@@H]1O	0.5 µg/mL (≈ 0.845 µM)	1 µg/mL (≈ 1.69 µM)	> 32 µg/mL	0.125 µg/mL (≈ 0.211 µM)	1 µg/mL (≈ 1.69 µM)	> 32 µg/mL
C=C[C@]1(C)C[C@@H](OC(=O)CSc2nc(OC(=O)c3ccccc3Br)cs2)[C@]2(C)[C@H](C)CC[C@]3(CCC(=O)[C@H]32)[C@@H](C)[C@@H]1O	0.5 µg/mL (≈ 0.739 µM)	0.5 µg/mL (≈ 0.739 µM)	> 32 µg/mL	0.063 µg/mL (≈ 0.0931 µM)	2 µg/mL (≈ 2.96 µM)	> 32 µg/mL
C=C[C@]1(C)C[C@@H](OC(=O)CSc2nc(OC(=O)C3CC3)cs2)[C@]2(C)[C@H](C)CC[C@]3(CCC(=O)[C@H]32)[C@@H](C)[C@@H]1O	0.25 µg/mL (≈ 0.445 µM)	0.5 µg/mL (≈ 0.89 µM)	> 32 µg/mL	0.063 µg/mL (≈ 0.112 µM)	1 µg/mL (≈ 1.78 µM)	> 32 µg/mL
